# Source: patent US10590132B2, “Selective estrogen receptor down-regulators” (AstraZeneca AB, priority 2017, dated 2020)
# Test: Human plasma protein binding (equilibrium dialysis)
# Assay type: in vitro ADME
# Conditions: dialysis 18 hours
row,Human plasma protein binding (% free),SMILES
1,23 % free,"CC(CN1[C@H](c2c(Cl)ccc(OCCNCCCF)c2Cl)c2[nH]c3ccc(F)cc3c2C[C@H]1C)C(=O)O (single isomer, unassigned) [Example 129]"
2,7.8 % free,"CC(CN1[C@H](c2c(Cl)ccc(OCCNCCCF)c2Cl)c2[nH]c3ccc(F)cc3c2C[C@H]1C)C(=O)O (single isomer, unassigned) [Example 130]"
3,21 % free,"Cc1c(OCCN(C)CCCF)ncc(F)c1[C@@H]1c2[nH]c3ccccc3c2C[C@@H](C)N1C(C)CC(=O)O (single isomer, unassigned) [Example 158]"
4,13 % free,"Cc1c(OCCN(C)CCCF)ncc(F)c1[C@@H]1c2[nH]c3ccccc3c2C[C@@H](C)N1C(C)CC(=O)O (single isomer, unassigned) [Example 159]"
5,2.2 % free,"C[C@@H]1Cc2c([nH]c3ccccc23)[C@@H](c2cccc(OCCNCCCF)n2)N1CC(F)(F)F [Example 34, 3-fluoro-N-(2-((6-((1S,3R)-3-methyl-2-(2,2,2-trifluoroethyl)-2,3,4,9-tetrahydro-1H-pyrido[3,4-b]indol-1-yl)pyridin-2-yl)oxy)ethyl)propan-1-amine]"
6,5.4 % free,"C[C@@H]1Cc2c([nH]c3ccccc23)[C@@H](c2cc(OCCNCCCF)ccn2)N1CC(F)(F)F [Example 35, 3-fluoro-N-(2-((2-((1S,3R)-3-methyl-2-(2,2,2-trifluoroethyl)-2,3,4,9-tetrahydro-1H-pyrido[3,4-b]indol-1-yl)pyridin-4-yl)oxy)ethyl)propan-1-amine]"
7,2 % free,"COc1ncc(OCCNCCCF)cc1[C@@H]1c2[nH]c3ccccc3c2C[C@@H](C)N1CC(F)(F)F [Example 36, 3-fluoro-N-(2-((6-methoxy-5-((1R,3R)-3-methyl-2-(2,2,2-trifluoroethyl)-2,3,4,9-tetrahydro-1H-pyrido[3,4-b]indol-1-yl)pyridin-3-yl)oxy)ethyl)propan-1-amine]"
8,2.3 % free,"Cc1ncc(OCCNCCCF)cc1[C@@H]1c2[nH]c3ccccc3c2C[C@@H](C)N1CC(F)(F)F [Example 37, 3-fluoro-N-(2-((6-methyl-5-((1R,3R)-3-methyl-2-(2,2,2-trifluoroethyl)-2,3,4,9-tetrahydro-1H-pyrido[3,4-b]indol-1-yl)pyridin-3-yl)oxy)ethyl)propan-1-amine]"
9,0.91 % free,"Cc1c(OCCNCCCF)cncc1[C@@H]1c2[nH]c3ccccc3c2C[C@@H](C)N1CC(F)(F)F [Example 38, 3-fluoro-N-(2-((4-methyl-5-((1R,3R)-3-methyl-2-(2,2,2-trifluoroethyl)-2,3,4,9-tetrahydro-1H-pyrido[3,4-b]indol-1-yl)pyridin-3-yl)oxy)ethyl)propan-1-amine]"
10,0.89 % free,"COc1ccc(NCCNCCCF)cc1[C@@H]1c2[nH]c3ccccc3c2C[C@@H](C)N1CC(F)(F)F [Example 40, N1-(3-fluoropropyl)-N2-(4-methoxy-3-((1R,3R)-3-methyl-2-(2,2,2-trifluoroethyl)-2,3,4,9-tetrahydro-1H-pyrido[3,4-b]indol-1-yl)phenyl)ethane-1,2-diamine]"
11,1.8 % free,"COc1ncc(NCCNCCCF)cc1[C@@H]1c2[nH]c3ccccc3c2C[C@@H](C)N1CC(F)(F)F [Example 41, N1-(3-fluoropropyl)-N2-(6-methoxy-5-((1R,3R)-3-methyl-2-(2,2,2-trifluoroethyl)-2,3,4,9-tetrahydro-1H-pyrido[3,4-b]indol-1-yl)pyridin-3-yl)ethane-1,2-diamine]"
12,2.8 % free,"COc1ccc(NCCNCCCF)nc1[C@@H]1c2[nH]c3ccccc3c2C[C@@H](C)N1CC(F)(F)F [Example 43, N1-(3-fluoropropyl)-N2-(5-methoxy-6-((1S,3R)-3-methyl-2-(2,2,2-trifluoroethyl)-2,3,4,9-tetrahydro-1H-pyrido[3,4-b]indol-1-yl)pyridin-2-yl)ethane-1,2-diamine]"
13,2.3 % free,"C[C@@H]1Cc2c([nH]c3ccccc23)[C@@H](c2cc(OCCNCCCF)ccc2Cl)N1CC(F)(F)CO [Example 44, 3-((1R,3R)-1-(2-chloro-5-(2-((3-fluoropropyl)amino)ethoxy)phenyl)-3-methyl-1,3,4,9-tetrahydro-2H-pyrido[3,4-b]indol-2-yl)-2,2-difluoropropan-1-ol]"
14,2.4 % free,"COc1ccc(OCCNCCCF)cc1[C@@H]1c2[nH]c3ccc(F)cc3c2C[C@@H](C)N1CC(F)(F)CO [Example 46, 2,2-difluoro-3-((1R,3R)-6-fluoro-1-(5-(2-((3-fluoropropyl)amino)ethoxy)-2-methoxyphenyl)-3-methyl-1,3,4,9-tetrahydro-2H-pyrido[3,4-b]indol-2-yl)propan-1-ol]"

# Further lines, the compound ahead of its results:
row,SMILES,Human plasma protein binding (% free)
1,"COc1ccc(OCCNCCCF)cc1[C@@H]1c2[nH]c3ccccc3c2C[C@@H](C)N1CC(F)(F)F [Example 7, 3-Fluoro-N-(2-(4-methoxy-3-((1R,3R)-3-methyl-2-(2,2,2-trifluoroethyl)-2,3,4,9-tetrahydro-1H-pyrido[3,4-b]indol-1-yl)phenoxy)ethyl)propan-1-amine]",1.5 % free
2,"C[C@@H]1Cc2c([nH]c3ccccc23)[C@@H](c2c(F)ccc(OCCNCCCF)c2F)N1CC1(F)COC1 [Example 13, N-(2-(2,4-difluoro-3-((1R,3R)-2-((3-fluorooxetan-3-yl)methyl)-3-methyl-2,3,4,9-tetrahydro-1H-pyrido[3,4-b]indol-1-yl)phenoxy)ethyl)-3-fluoropropan-1-amine]",3.5 % free
3,"C[C@@H]1Cc2c([nH]c3ccc(F)cc23)[C@@H](c2c(F)ccc(OCCNCCCF)c2F)N1CC(F)(F)CO [Example 15, 3-((1R,3R)-1-(2,6-difluoro-3-(2-((3-fluoropropyl)amino)ethoxy)phenyl)-6-fluoro-3-methyl-1,3,4,9-tetrahydro-2H-pyrido[3,4-b]indol-2-yl)-2,2-difluoropropan-1-ol]",3.2 % free
4,"CCc1ccc(OCCNCCCF)cc1[C@@H]1c2[nH]c3ccccc3c2C[C@@H](C)N1CC(F)(F)F [Example 21, N-(2-(4-ethyl-3-((1R,3R)-3-methyl-2-(2,2,2-trifluoroethyl)-2,3,4,9-tetrahydro-1H-pyrido[3,4-b]indol-1-yl)phenoxy)ethyl)-3-fluoropropan-1-amine]",0.10 % free
5,"C[C@@H]1Cc2c([nH]c3ccccc23)[C@@H](c2cc(OCCNCCCF)ccc2Cl)N1CC(F)(F)F [Example 22, N-(2-(4-chloro-3-((1R,3R)-3-methyl-2-(2,2,2-trifluoroethyl)-2,3,4,9-tetrahydro-1H-pyrido[3,4-b]indol-1-yl)phenoxy)ethyl)-3-fluoropropan-1-amine]",0.61 % free
6,"C[C@@H]1Cc2c([nH]c3ccccc23)[C@@H](c2cc(OCCNCCCF)ccc2C#N)N1CC(F)(F)F [Example 23, 4-(2-((3-fluoropropyl)amino)ethoxy)-2-((1R,3R)-3-methyl-2-(2,2,2-trifluoroethyl)-2,3,4,9-tetrahydro-1H-pyrido[3,4-b]indol-1-yl)benzonitrile]",3.7 % free
7,"C[C@@H]1Cc2c([nH]c3ccccc23)[C@@H](c2cccc(OCCNCCCF)c2Cl)N1CC(F)(F)F [Example 25, N-(2-(2-chloro-3-((1R,3R)-3-methyl-2-(2,2,2-trifluoroethyl)-2,3,4,9-tetrahydro-1H-pyrido[3,4-b]indol-1-yl)phenoxy)ethyl)-3-fluoropropan-1-amine]",0.080 % free
8,"COc1ccc(OCCNCCCF)c(C)c1[C@@H]1c2[nH]c3ccccc3c2C[C@@H](C)N1CC(F)(F)F [Example 26, 3-fluoro-N-(2-(4-methoxy-2-methyl-3-((1R,3R)-3-methyl-2-(2,2,2-trifluoroethyl)-2,3,4,9-tetrahydro-1H-pyrido[3,4-b]indol-1-yl)phenoxy)ethyl)propan-1-amine]",0.22 % free
9,"COc1c(F)cc(OCCNCCCF)cc1[C@@H]1c2[nH]c3ccccc3c2C[C@@H](C)N1CC(F)(F)F [Example 27, 3-fluoro-N-(2-(3-fluoro-4-methoxy-5-((1R,3R)-3-methyl-2-(2,2,2-trifluoroethyl)-2,3,4,9-tetrahydro-1H-pyrido[3,4-b]indol-1-yl)phenoxy)ethyl)propan-1-amine]",0.42 % free
10,"COc1cc(F)c(OCCNCCCF)cc1[C@@H]1c2[nH]c3ccccc3c2C[C@@H](C)N1CC(F)(F)F [Example 28, 3-fluoro-N-(2-(2-fluoro-4-methoxy-5-((1R,3R)-3-methyl-2-(2,2,2-trifluoroethyl)-2,3,4,9-tetrahydro-1H-pyrido[3,4-b]indol-1-yl)phenoxy)ethyl)propan-1-amine]",1.2 % free
11,"COc1c(F)cc(OCCNCCCF)c(F)c1[C@@H]1c2[nH]c3ccccc3c2C[C@@H](C)N1CC(F)(F)F [Example 29, N-(2-(2,5-difluoro-4-methoxy-3-((1R,3R)-3-methyl-2-(2,2,2-trifluoroethyl)-2,3,4,9-tetrahydro-1H-pyrido[3,4-b]indol-1-yl)phenoxy)ethyl)-3-fluoropropan-1-amine]",<3.2 % free
12,"C[C@@H]1Cc2c([nH]c3ccccc23)[C@@H](c2cc(OCCNCCCF)cc(F)c2F)N1CC(F)(F)F [Example 30, N-(2-(3,4-difluoro-5-((1R,3R)-3-methyl-2-(2,2,2-trifluoroethyl)-2,3,4,9-tetrahydro-1H-pyrido[3,4-b]indol-1-yl)phenoxy)ethyl)-3-fluoropropan-1-amine]",0.72 % free
13,"C[C@@H]1Cc2c([nH]c3ccccc23)[C@@H](c2cc(F)cc(OCCNCCCF)c2F)N1CC(F)(F)F [Example 31, N-(2-(2,5-difluoro-3-((1R,3R)-3-methyl-2-(2,2,2-trifluoroethyl)-2,3,4,9-tetrahydro-1H-pyrido[3,4-b]indol-1-yl)phenoxy)ethyl)-3-fluoropropan-1-amine]",0.41 % free
14,"C[C@@H]1Cc2c([nH]c3ccccc23)[C@@H](c2c(F)c(F)cc(OCCNCCCF)c2F)N1CC(F)(F)F [Example 32, 3-fluoro-N-(2-(2,4,5-trifluoro-3-((1R,3R)-3-methyl-2-(2,2,2-trifluoroethyl)-2,3,4,9-tetrahydro-1H-pyrido[3,4-b]indol-1-yl)phenoxy)ethyl)propan-1-amine]",0.52 % free
